# From patent publication US10238631B2, “Sesquiterpene derivatives and their use in inflammation or cancer treatment” (Academia Sinica, priority 2014, dated 2019)
# Tests used:
# [1] = test system: TS/A (ER+, Her2−) murine mammary cancer cells; test: MTT cell viability assay, TS/A cells; assay type: cell-based; settings: Mus musculus, 24 h, read-out: IC50 on cell viability, TS/A (ER+, Her2−)
# In short: (§1)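 MTT readout at OD570; % viable = treated/vehicle ×100, vehicle (0.5% DMSO) set as 100%. Seeding 2×10^3–1×10^4 cells/well overnight, compound exposure 24 h to 72 h.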
# [2] = test system: MDA-MB-231 (ER−, PR−, Her2−) human breast cancer cells; test: MTT cell viability assay, MDA-MB-231 cells; assay type: cell-based; settings: Homo sapiens, MDA-MB-231, 24 h, read-out: IC50 on cell viability, MDA-MB-231 (ER−, PR−, Her2−)
# In short: as §1
# [3] = test system: MCF-7 (ER+, Her2−) human breast cancer cells; test: MTT cell viability assay, MCF-7 cells; assay type: cell-based; settings: MCF7, 24 h, read-out: IC50 on cell viability, MCF-7 (ER+, Her2−)
# In short: as §1
# [4] = test system: M10 normal mammary epithelial cells; test: MTT cell viability assay, M10 normal cells; assay type: cell-based, human; settings: Homo sapiens, Epithelial cell, 24 h
# In short: as §1
# B16-F10 (NRAS mutation) = test: MTT cell viability assay, B16-F10 melanoma; assay type: cell-based; settings: Mus musculus, B16-F10, 24 h, 24 h, read-out: IC50 on cell viability, B16-F10 (NRAS mutation)
# In short: (§2)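 MTT readout at OD570, normalised to 0.5% DMSO vehicle-treated cells set as 100% viable. Compound exposure lasted 24 h to 72 h after overnight seeding of 2×10^3 to 1×10^4 cells/well.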
# [5] = test system: MeWo (No NRAS or BRAF mutation); test: MTT cell viability assay, MeWo melanoma; assay type: cell-based, human; settings: Homo sapiens, MeWo, 24 h
# In short: as §2
# HTB-68 (NRAS mutation) = test: MTT cell viability assay, HTB-68 melanoma; assay type: cell-based, human; settings: Homo sapiens, 24 h
# In short: as §2
# A2058 (BRAF mutation) = test: MTT cell viability assay, A2058 melanoma; assay type: cell-based, human; settings: Homo sapiens, A2058, 24 h
# In short: as §2
# A375 (BRAF mutation) = test: MTT cell viability assay, A375 melanoma; assay type: cell-based, human; settings: Homo sapiens, A-375, 24 h, 24 h, MTT; read-out: IC50 on cell viability, A375 (BRAF mutation)
# In short: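 A375 cells were seeded at 2×10^3 to 1×10^4 per well overnight and then exposed to compounds for 24 h to 72 h. Viability was measured by MTT absorbance at OD570 relative to 0.5% DMSO vehicle (100%), and IC50 was derived from it. Combination with PLX4032 was scored by combination index.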
# [6] = test system: Melanocyte (Normal cells); test: MTT cell viability assay, normal melanocytes; assay type: cell-based, human; settings: Homo sapiens, Melanocyte, 24 h
# In short: as §2
# [7] = test system: RAW264.7 (normal macrophage); test: MTT cell viability assay, RAW264.7 macrophages; assay type: cell-based, mouse; settings: Mus musculus, RAW264.7, 24 h
# In short: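 RAW264.7 macrophages (2×10^5 cells/well) pretreated with compounds 1 h, then incubated 24 h with or without 100 ng/μL LPS. Viability by MTT colorimetric assay run in parallel with Griess nitrite measurement.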
# [8] = test system: LPS-induced nitric oxide (NO) production in RAW 264.7 cells; test: Nitric oxide production in LPS-stimulated macrophages (Griess); assay type: cell-based, mouse; settings: Mus musculus; LPS-stimulated RAW264.7, nitrite 24 h after LPS
# In short: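 RAW 264.7 macrophages (2×10^5 cells/well) were pretreated with compound for 1 h and then stimulated with 100 ng/μL LPS for 24 h. NO was measured as nitrite in the medium by the Griess reaction. Viability was checked in parallel by MTT.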
# [9] = test system: melanoma cell lines B16-F10, MeWo, A375, A2058, HTB-68; test: MTT cell viability assay, all melanoma cell lines; assay type: cell-based; settings: 24 h, read-out: IC50 values over all types of melanoma cell lines
# Protocol: Normal or cancer cells (2×10^3 to 1×10^4 cells/well) were seeded in 96-well plate for overnight and treated with different compounds for 24 h to 72 h. Cells growth were determined by MTT-based colorimetric assays according to. Viability of the test cells treated with vehicle (0.5% DMSO) only was defined as 100% viable. Survival of cells after treatment with DETDs was calculated using the following formula: viable cell number (%)=OD570 (treated cell culture)/OD570 (vehicle control)×100.
# Several genes are involved in melanoma development and pathology; specifically, mutation in V-raf murine sarcoma viral oncogene homolog B1 (B-RAF) occurs approximately 50-60% and in neuroblastoma RAS viral oncogene homolog (N-RAS) occurs about 30% of malignant melanomas. A spectrum of wild-type or mutated melanoma cell lines including B16-F10, MeWo, A375, A2058, HTB-68, and melanocyte were used to study anti-melanoma cell proliferation activity of parental phytocompound DET and newly synthesized DETDs.
IC50 [1],IC50 [2],IC50 [3],IC50 (B16-F10 (NRAS mutation)),IC50 [5],IC50 (HTB-68 (NRAS mutation)),IC50 (A2058 (BRAF mutation)),IC50 (A375 (BRAF mutation)),IC50 [8],IC50 [9],SMILES,IC50 [4],IC50 [6],IC50 [7]
4.4 µM,7.7 µM,> 7.5 µM,9.4 µM,9.3 µM,> 10 µM,8.7 µM,4.6 µM,> 10 µM,,C=C1C(=O)OC2CC3=C[C@@H](C/C(C)=C/C(OC(=O)/C=C/c4cccc(OCC)c4)[C@H]12)OC3=O (stereo partly shown) [DETD-50],> 7.5 µM,> 10 µM,> 10 µM
> 7.5 µM,> 15 µM,> 7.5 µM,> 10 µM,> 10 µM,> 10 µM,> 10 µM,> 10 µM,> 10 µM,,C=C1C(=O)OC2CC3=C[C@@H](C/C(C)=C/C(OC(=O)CCc4cccc5ccccc45)[C@H]12)OC3=O (stereo partly shown) [DETD-51],> 7.5 µM,> 10 µM,> 10 µM
> 7.5 µM,> 15 µM,> 7.5 µM,> 10 µM,> 10 µM,> 10 µM,> 10 µM,> 10 µM,> 10 µM,,C=C1C(=O)OC2CC3=C[C@@H](C/C(C)=C/C(OC(=O)Cc4cccc5cccnc45)[C@H]12)OC3=O (stereo partly shown) [DETD-52],> 7.5 µM,> 10 µM,> 10 µM
> 7.5 µM,> 15 µM,> 7.5 µM,8.1 µM,> 10 µM,8 µM,8.3 µM,4.2 µM,> 10 µM,,C=C1C(=O)OC2CC3=C[C@@H](C/C(C)=C/[C@@H](OC(=O)[C@H](OC)c4ccc5ccccc5c4)[C@H]12)OC3=O (stereo partly shown) [DETD-57],> 7.5 µM,> 10 µM,> 10 µM
3.5 µM,5.1 µM,> 7.5 µM,6.3 µM,> 10 µM,4.8 µM,6 µM,2.6 µM,> 10 µM,,C=C1C(=O)OC2CC3=C[C@@H](C/C(C)=C/[C@@H](OC(=O)Cc4coc5ccccc45)[C@H]12)OC3=O (stereo partly shown) [DETD-59],> 7.5 µM,> 10 µM,> 10 µM
> 7.5 µM,7.4 µM,> 7.5 µM,9.3 µM,> 10 µM,9 µM,8.7 µM,5 µM,> 10 µM,,C=C1C(=O)OC2CC3=C[C@@H](C/C(C)=C/[C@H](OC(=O)Cc4cccc5ccccc45)[C@H]12)OC3=O (stereo partly shown) [DETD-62],> 7.5 µM,> 10 µM,> 10 µM

# More lines, now with the values behind:
SMILES,IC50 [1],IC50 [2],IC50 [3],IC50 (B16-F10 (NRAS mutation)),IC50 [5],IC50 (HTB-68 (NRAS mutation)),IC50 (A2058 (BRAF mutation)),IC50 (A375 (BRAF mutation)),IC50 [8],IC50 [9],IC50 [4],IC50 [6],IC50 [7]
C=C1C(=O)OC2CC3=C[C@@H](C/C(C)=C/C(OC(=O)/C=C/c4ccc(Cl)cc4)[C@H]12)OC3=O (stereo partly shown) [DETD-28],1.8 µM,4.2 µM,3.6 µM,3.9 µM,6.7 µM,6.1 µM,4.4 µM,3 µM,2.1 µM,1.6 to 9.9 µM,4.8 µM,> 10 µM,> 10 µM
C=C1C(=O)OC2CC3=C[C@@H](C/C(C)=C/C(OC(=O)c4cccs4)[C@H]12)OC3=O (stereo partly shown) [DETD-30],2.4 µM,4.3 µM,3.7 µM,2.5 µM,9.1 µM,7.6 µM,5.2 µM,3.4 µM,1.6 µM,1.6 to 9.9 µM,> 7.5 µM,> 10 µM,> 10 µM
C=C1C(=O)OC2CC3=C[C@@H](C/C(C)=C/C(OC(=O)c4ccc(C)cc4)[C@H]12)OC3=O (stereo partly shown) [DETD-33],1.8 µM,4.2 µM,2.7 µM,2.2 µM,6.7 µM,5.9 µM,4.2 µM,2.9 µM,1.9 µM,1.6 to 9.9 µM,> 7.5 µM,> 10 µM,> 10 µM
C=C1C(=O)OC2CC3=C[C@@H](C/C(C)=C/C(OC(=O)c4ccc(Br)cc4)[C@H]12)OC3=O (stereo partly shown) [DETD-34],3 µM,2.2 µM,6.1 µM,2 µM,7.3 µM,6.8 µM,4.4 µM,3.1 µM,2.3 µM,1.6 to 9.9 µM,> 7.5 µM,> 10 µM,> 10 µM
C=C1C(=O)OC2CC3=C[C@@H](C/C(C)=C/C(OC(=O)/C=C/c4cccc(C(F)(F)F)c4)[C@H]12)OC3=O (stereo partly shown) [DETD-48],> 7.5 µM,8.2 µM,> 7.5 µM,> 10 µM,> 10 µM,> 10 µM,> 10 µM,6.9 µM,> 10 µM,,> 7.5 µM,> 10 µM,> 10 µM
C=C1C(=O)OC2CC3=C[C@@H](C/C(C)=C/C(OC(=O)/C=C/c4ccc(OC)c(OC)c4)[C@H]12)OC3=O (stereo partly shown) [DETD-49],> 7.5 µM,9.5 µM,> 7.5 µM,> 10 µM,> 10 µM,> 10 µM,> 10 µM,4.9 µM,3.4 µM,,> 7.5 µM,> 10 µM,> 10 µM
